Read-outs that look alike come from different tables or passages of the source. Positions of bridges follow the written chain, without caps; N, C: chain ends. Non-standard residues stand in square brackets, D forms with d. Residues, ends and D or L forms follow the SMILES beside them. *: point of attachment. Palmitoyl = CCCCCCCCCCCCCCCC(=O)*; AEEA = NCCOCCOCC(=O)O
Assays:
CLR/RAMP1 receptor = CLR/RAMP1 receptor (Homo sapiens, UniProt O60894+Q16602); test: CLR/RAMP1 cAMP receptor activation assay (agonist); type: cell-based; set-up: host or cells: 1321N1 cells; settings: % of positive control (β-CGRP)
Sequence of CLR/RAMP1 receptor (Q16602 23-461): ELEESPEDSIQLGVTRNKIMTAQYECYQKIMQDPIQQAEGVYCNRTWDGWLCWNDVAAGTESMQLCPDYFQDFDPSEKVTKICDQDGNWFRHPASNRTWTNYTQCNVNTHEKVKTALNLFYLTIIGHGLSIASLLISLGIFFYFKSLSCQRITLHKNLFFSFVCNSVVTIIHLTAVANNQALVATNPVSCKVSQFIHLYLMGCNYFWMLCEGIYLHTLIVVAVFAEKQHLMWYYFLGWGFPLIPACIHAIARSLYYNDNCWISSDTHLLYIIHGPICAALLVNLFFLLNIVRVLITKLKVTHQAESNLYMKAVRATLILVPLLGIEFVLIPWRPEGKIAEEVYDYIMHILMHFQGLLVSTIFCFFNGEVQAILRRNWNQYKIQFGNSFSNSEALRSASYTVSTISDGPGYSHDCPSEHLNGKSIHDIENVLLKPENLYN
Sequence of CLR/RAMP1 receptor (O60894 27-148): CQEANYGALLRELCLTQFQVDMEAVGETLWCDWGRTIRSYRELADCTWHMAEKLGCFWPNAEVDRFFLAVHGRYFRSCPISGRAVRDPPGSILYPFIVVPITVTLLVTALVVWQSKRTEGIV

CLR/RAMP2 receptor = target: T1, CLR/RAMP2 receptor (Homo sapiens, UniProt O60895+Q16602); test: CLR/RAMP2 arrestin receptor activation assay (agonist); type: cell-based; settings: CHO-K1, read-out: CLR/RAMP 2 Max Activity % of positive control, CHO-K1 cells; % of positive control (ADM)
T1 construct: host or cells: CHO-K1 cells
T1 sequence (Q16602 23-461): as the sequence (Q16602 23-461) above
T1 sequence (O60895 43-175): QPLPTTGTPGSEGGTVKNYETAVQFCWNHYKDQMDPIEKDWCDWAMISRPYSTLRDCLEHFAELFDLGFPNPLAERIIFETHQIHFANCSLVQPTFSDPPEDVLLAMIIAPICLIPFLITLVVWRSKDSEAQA

[1] = 1321-N1, read-out: CLR/RAMP 1 Max Activity % of positive control, 1321N1 cells

Row | Emax (CLR/RAMP1 receptor; 1321-N1, 1321N1 cells, read-out: CLR/RAMP 1 Max Activity % of positive control) | Compound | Emax (CLR/RAMP1 receptor; [1]) | Emax (CLR/RAMP2 receptor)
1 |  | CCCCCCCCCCCCCCCC(=O)NCCCC[C@H](NC(=O)COCCOCCN)C(=O)NCC(=O)N[C@H]1CSSC[C@@H](C(=O)N[C@H](C(=O)N[C@H](C(=O)N[C@@H](CCC(N)=O)C(=O)N[C@@H](CCCCN)C(=O)N[C@@H](CC(C)C)C(=O)N[C@@H](C)C(=O)N[C@@H](Cc2c[nH]cn2)C(=O)N[C@@H](CCC(N)=O)C(=O)N[C@H](C(=O)N[C@@H](Cc2ccc(O)cc2)C(=O)N[C@@H](CCC(N)=O)C(=O)N[C@@H](Cc2ccccc2)C(=O)N[C@H](C(=O)N[C@@H](CC(=O)O)C(=O)N[C@@H](CCCCN)C(=O)N[C@@H](CC(=O)O)C(=O)N[C@@H](CCCCN)C(=O)N[C@@H](CC(=O)O)C(=O)N[C@@H](CC(N)=O)C(=O)N[C@H](C(=O)N[C@@H](C)C(=O)N2CCC[C@H]2C(=O)N[C@H](C(=O)N[C@@H](CC(=O)O)C(=O)N2CCC[C@H]2C(=O)N[C@@H](CO)C(=O)N[C@@H](CO)C(=O)N2CCC[C@H]2C(=O)N[C@@H](Cc2c[nH]cn2)C(=O)N[C@@H](CO)C(=O)N[C@@H](Cc2ccc(O)cc2)C(N)=O)C(C)C)C(C)C)[C@@H](C)O)[C@@H](C)CC)C(C)C)[C@@H](C)O)NC(=O)[C@H]([C@@H](C)O)NC(=O)CNC(=O)[C@H](Cc2ccccc2)NC(=O)[C@H](CCCNC(=N)N)NC1=O [SEQ ID NO: 50] | 65% | 87%
2 |  | CSCC[C@H](NC(=O)[C@H](CC(C)C)NC(=O)[C@H](CCC(N)=O)NC(=O)[C@H](Cc1c[nH]c2ccccc12)NC(=O)[C@H](CC(C)C)NC(=O)[C@H](Cc1c[nH]cn1)NC(=O)[C@H](C)NC(=O)[C@H](CC(C)C)NC(=O)[C@H](CCCCN)NC(=O)[C@H](CCC(N)=O)NC(=O)[C@@H](NC(=O)[C@@H](NC(=O)[C@@H]1CSSC[C@H](NC(=O)CNC(=O)[C@@H](NC(C)=O)C(C)C)C(=O)N[C@@H](CCCNC(=N)N)C(=O)N[C@@H](Cc2ccccc2)C(=O)NCC(=O)N[C@@H]([C@@H](C)O)C(=O)N1)[C@@H](C)O)C(C)C)C(=O)NCC(=O)N1CCC[C@H]1C(=O)N[C@@H](C)C(=O)NCC(=O)N[C@@H](CCCNC(=N)N)C(=O)N[C@@H](CCC(N)=O)C(=O)N[C@@H](CC(=O)O)C(=O)N[C@@H](CO)C(=O)N[C@@H](C)C(=O)N1CCC[C@H]1C(=O)N[C@H](C(=O)N[C@@H](CC(=O)O)C(=O)N1CCC[C@H]1C(=O)N[C@@H](CO)C(=O)N[C@@H](CO)C(=O)N1CCC[C@H]1C(=O)N[C@@H](Cc1c[nH]cn1)C(=O)N[C@@H](CO)C(=O)N[C@@H](Cc1ccc(O)cc1)C(N)=O)C(C)C [SEQ ID NO: 58] | 0% | 
3 |  | CCCCCCCCCCCCCCCC(=O)NCCCC[C@H](NC(=O)COCCOCCN)C(=O)NCC(=O)N[C@H]1CSSC[C@@H](C(=O)N[C@H](C(=O)N[C@H](C(=O)N[C@@H](CCC(N)=O)C(=O)N[C@@H](CCCCN)C(=O)N[C@@H](CC(C)C)C(=O)N[C@@H](C)C(=O)N[C@@H](Cc2c[nH]cn2)C(=O)N[C@@H](CCC(N)=O)C(=O)N[C@H](C(=O)N[C@@H](Cc2ccc(O)cc2)C(=O)N[C@@H](CCC(N)=O)C(=O)N[C@@H](Cc2ccccc2)C(=O)N[C@H](C(=O)N[C@@H](CC(=O)O)C(=O)N[C@@H](CCCCN)C(=O)N[C@@H](CC(=O)O)C(=O)N[C@@H](CCCCN)C(=O)N[C@@H](CC(=O)O)C(=O)N[C@@H](CC(N)=O)C(=O)N[C@H](C(=O)N[C@@H](C)C(=O)N2CCC[C@H]2C(=O)N[C@@H](CCCNC(=N)N)C(=O)N[C@@H](CO)C(=O)N[C@@H](CCCCN)C(=O)N[C@@H](CO)C(=O)N[C@@H](CO)C(=O)N2CCC[C@H]2C(=O)N[C@@H](Cc2c[nH]cn2)C(=O)N[C@@H](CO)C(=O)N[C@@H](Cc2ccc(O)cc2)C(N)=O)C(C)C)[C@@H](C)O)[C@@H](C)CC)C(C)C)[C@@H](C)O)NC(=O)[C@H]([C@@H](C)O)NC(=O)CNC(=O)[C@H](Cc2ccccc2)NC(=O)[C@H](CCCNC(=N)N)NC1=O [SEQ ID NO: 61] | 70% | 92%
4 |  | CCCCCCCCCCCCCCCC(=O)NCCCC[C@H](NC(=O)COCCOCCN)C(=O)N[C@H]1CSSC[C@@H](C(=O)N[C@H](C(=O)N[C@H](C(=O)N[C@@H](CCC(N)=O)C(=O)N[C@@H](CCCCN)C(=O)N[C@@H](CC(C)C)C(=O)N[C@@H](C)C(=O)N[C@@H](Cc2c[nH]cn2)C(=O)N[C@@H](CCC(N)=O)C(=O)N[C@H](C(=O)N[C@@H](Cc2ccc(O)cc2)C(=O)N[C@@H](CCC(N)=O)C(=O)N[C@@H](Cc2ccccc2)C(=O)N[C@H](C(=O)N[C@@H](CC(=O)O)C(=O)N[C@@H](CCCCN)C(=O)N[C@@H](CC(=O)O)C(=O)N[C@@H](CCCCN)C(=O)N[C@@H](CC(=O)O)C(=O)N[C@@H](CC(N)=O)C(=O)N[C@@H](CO)C(=O)N[C@@H](C)C(=O)N2CCC[C@H]2C(=O)N[C@H](C(=O)N[C@@H](CC(=O)O)C(=O)N2CCC[C@H]2C(=O)N[C@@H](CO)C(=O)N[C@@H](CO)C(=O)N2CCC[C@H]2C(=O)N[C@@H](Cc2c[nH]cn2)C(=O)N[C@@H](CO)C(=O)N[C@@H](Cc2ccc(O)cc2)C(N)=O)C(C)C)[C@@H](C)O)[C@@H](C)CC)C(C)C)[C@@H](C)O)NC(=O)[C@H]([C@@H](C)O)NC(=O)CNC(=O)[C@H](Cc2ccccc2)NC(=O)[C@H](CCCNC(=N)N)NC1=O [SEQ ID NO: 43] (H-[AEEA]K(Palmitoyl)CRFGTCTVQKLAHQIYQFTDKDKDNSAPVDPSSPHSY-NH2; disulfide 3-8) | 39% | 30%
5 |  | CCCCCCCCCCCCCCCC(=O)NCCCC[C@H](NC(=O)COCCOCCN)C(=O)NCC(=O)N[C@H]1CSSC[C@@H](C(=O)N[C@H](C(=O)N[C@H](C(=O)N[C@@H](CCC(N)=O)C(=O)N[C@@H](CCCCN)C(=O)N[C@@H](CC(C)C)C(=O)N[C@@H](C)C(=O)N[C@@H](Cc2c[nH]cn2)C(=O)N[C@@H](CCC(N)=O)C(=O)N[C@H](C(=O)N[C@@H](Cc2ccc(O)cc2)C(=O)N[C@@H](CCC(N)=O)C(=O)N[C@@H](Cc2ccccc2)C(=O)N[C@H](C(=O)N[C@@H](CC(=O)O)C(=O)N[C@@H](CCCCN)C(=O)NCC(=O)N[C@@H](CCCNC(=N)N)C(=O)N[C@@H](CCC(N)=O)C(=O)N[C@@H](CC(=O)O)C(=O)N[C@@H](CO)C(=O)N[C@@H](C)C(=O)N2CCC[C@H]2C(=O)N[C@H](C(=O)N[C@@H](CC(=O)O)C(=O)N2CCC[C@H]2C(=O)N[C@@H](CO)C(=O)N[C@@H](CO)C(=O)N2CCC[C@H]2C(=O)N[C@@H](Cc2c[nH]cn2)C(=O)N[C@@H](CO)C(=O)N[C@@H](Cc2ccc(O)cc2)C(N)=O)C(C)C)[C@@H](C)O)[C@@H](C)CC)C(C)C)[C@@H](C)O)NC(=O)[C@H]([C@@H](C)O)NC(=O)CNC(=O)[C@H](Cc2ccccc2)NC(=O)[C@H](CCCNC(=N)N)NC1=O [SEQ ID NO: 68] |  | 70%
6 | 100% | CSCC[C@H](NC(=O)CNC(=O)CNC(=O)[C@H](CO)NC(=O)[C@H](CCCNC(=N)N)NC(=O)[C@H](CO)NC(=O)[C@H](CC(C)C)NC(=O)[C@H](CC(C)C)NC(=O)CNC(=O)[C@H](C)NC(=O)[C@H](CC(C)C)NC(=O)[C@H](CCCNC(=N)N)NC(=O)[C@H](Cc1c[nH]cn1)NC(=O)[C@@H](NC(=O)[C@@H](NC(=O)[C@@H]1CSSC[C@H](NC(=O)[C@H](C)N)C(=O)N[C@@H](CC(N)=O)C(=O)N[C@@H]([C@@H](C)O)C(=O)N[C@@H](C)C(=O)N[C@@H]([C@@H](C)O)C(=O)N1)C(C)C)[C@@H](C)O)C(=O)N[C@H](C(=O)N[C@@H](CCCCN)C(=O)N[C@@H](CO)C(=O)N[C@@H](CC(N)=O)C(=O)N[C@@H](Cc1ccccc1)C(=O)N[C@H](C(=O)N1CCC[C@H]1C(=O)N[C@H](C(=O)N[C@@H](CC(N)=O)C(=O)N[C@H](C(=O)NCC(=O)N[C@@H](CO)C(=O)N[C@@H](CCCCN)C(=O)N[C@@H](C)C(=O)N[C@@H](Cc1ccccc1)C(N)=O)C(C)C)[C@@H](C)O)C(C)C)C(C)C [Wild type CGRP-β positive, reference compound] |  | 

Reference: patent publication US20220340633A1 (Adepthera LLC, priority 2016, published 2022)
